In patent publication US4468350A, “KA-6643-Series antibiotics, process for producing same and medical composition containing same” (Kowa Co., Ltd., priority 1980, dated 1984):
Values after ≈ are worked out from the molar mass of the structure shown. Where two headings read alike, the source gives them in different places.

How the values were obtained:
[1] = tested on: Pseudomonas aeruginosa NCTC 10490; test: Antibacterial spectrum, minimum inhibitory concentration; type: cell-based; conditions: NCTC10490
[2] = tested on: Klebsiella pneumoniae PCI-602; test: as above; type: cell-based; conditions: PCI602
[3] = tested on: Enterobacter cloacae IID 977; test: as above; type: cell-based; conditions: IID977
[4] = tested on: Staphylococcus aureus 209P JC-1; test: as above; type: cell-based
[5] = tested on: Escherichia coli NIHJ JC-2; test: as above; type: cell-based; conditions: NIHJJC2
Solubility in solvents = type: physicochemical; conditions: sodium salt
Proteus vulgaris OX17 = test: Antibacterial spectrum, minimum inhibitory concentration; type: cell-based
[6] = tested on: Escherichia coli ML-1410R EC-1; test: Antibacterial activity-improving action against β-lactam-resistant bacteria (Disc method); type: cell-based; conditions: ML1410REC1, 18 h
Protocol: (1) Antibacterial activity-improving action against β-lactam-resistantbacteria (Disc method):
(§1) In Penassay agar (Kyoei Pharm. Co., Ltd.) in which 200 mcg/ml of aminobenzyl penicillin (AB-PC) was inoculated germs of Escherichia coli ML-1410R EC-1 which β-lactamase-producing organisms, and 10 ml of the inoculated medium were poured on a Petri disch of 9 cm in diameter and solidified to give a test medium.
(§2) On this agar medium were placed pulp discs of 8 mm in diameter into which were respectively introduced […] of aqueous solutions of the substance KA-6643-D with a concentration of 10 mcg/ml followed by culturing at 37° C. for 18 hours and measuring the diameter of an inhibition zone around each disc. For purposes of control, the above experiment was repeated using the same type of medium in which no AB-PC was added.
The synergistic effect of the present substance and Ampicillin (aminobenzylpenicillin, AB-PC) on Escherichia coli which is resistant to Ampicillin was investigated by the disc method similarly to item (II) above with the results shown in Table 2.

β-lactamase = conditions: disclosed in Japanese Laid-open Patent Application Nos. 55-139380 and 56-43284; cited from earlier work
[7] = tested on: gram-positive and gram-negative bacteria; conditions: disclosed in Japanese Laid-open Patent Application Nos. 55-139380 and 56-43284; cited from earlier work
dehydropeptidase = test: Decomposition with dehydropeptidase (stability); type: in vitro ADME; conditions: dehydropeptidase extracted from pig kidney and purified; KA-6643-A given as 1
[8] = tested on: Ampicillin-resistant Escherichia coli; test: Synergistic effect with Ampicillin (AB-PC) on Ampicillin-resistant Escherichia coli (disc method); type: cell-based; conditions: for Diameter of inhibitory zone: AB-PC added; for Inhibitory zone: AB-PC 500 mcg/ml
Protocol: as §1, §2
The synergistic effect of the present substance and Ampicillin (AB-PC) on the Ampicillin-resistant Escherichia coli was investigated by the disc method similarly to the case of item (II) above, except that AB-PC was used in an amount of 500 mcg/ml.
The synergistic effect of the present substance and Ampicillin (AB-PC) on the Ampicillin-resistant Escherichia coli was investigated by the disc method similarly to the case of item (II) above.

Proteus inconstants = test: Antibacterial spectrum, minimum inhibitory concentration; type: cell-based

Row | MIC [1] | MIC [2] | MIC [3] | MIC [4] | MIC [5] | MIC (Proteus vulgaris OX17) | Solubility in water and methanol (Solubility in solvents) | SMILES | β-lactamase inhibiting activity (β-lactamase) | antibacterial activity against both gram-positive and gram-negative bacteria [7] | rate of decomposition with dehydropeptidase (dehydropeptidase) | further results
1 | – | – | – | – | – | – | – | CC(=O)NC=C[S+]([O-])C1=C(C(=O)O)N2C(=O)C(C(C)(C)O)C2C1 (stereo not shown) [KA-6643-A] | β-lactamase inhibiting activity | excellent antibacterial activity | 1 | –
2 | – | – | – | – | – | – | – | CC(=O)NC=C[S+]([O-])C1=C(C(=O)O)N2C(=O)C(C(C)(C)OS(=O)(=O)O)C2C1 (stereo not shown) [KA-6643-B] | β-lactamase inhibiting activity | excellent antibacterial activity | – | –
3 | 3.1 µg/mL (≈ 9.5 µM) | 0.2 µg/mL (≈ 0.613 µM) | 0.78 µg/mL (≈ 2.39 µM) | 1.56 µg/mL (≈ 4.78 µM) | 0.05 µg/mL (≈ 0.153 µM) | 0.05 µg/mL (≈ 0.153 µM) | Soluble | CC(=O)NCCSC1=C(C(=O)O)N2C(=O)C(=C(C)CO)C2C1 (stereo not shown) [KA-6643-X] | – | – | – | zone of inhibition at 25 µg/mL ([8]; Escherichia coli, 18 h, present substance 25 mcg/ml, No AB-PC added, read-out: Diameter of inhibitory zone): 19 mm; zone of inhibition at 50 µg/mL ([8]; Escherichia coli, 18 h, present substance 50 mcg/ml, No AB-PC added, read-out: Diameter of inhibitory zone): 21 mm; Diameter of inhibitory zone ([8]; present substance 25 mcg/ml): 21.5 mm; Diameter of inhibitory zone ([8]; present substance 50 mcg/ml): 23.0 mm; Solubility in acetone, ethyl acetate, chloroform and ether (Solubility in solvents; acetone, ethyl acetate, chloroform and ether): substantially insoluble; MIC (Proteus inconstants): 3.1 µg/mL (≈ 9.5 µM)
4 | > 25 µg/mL | > 25 µg/mL | > 25 µg/mL | 6.25 µg/mL (≈ 19 µM) | > 25 µg/mL | > 25 µg/mL | Soluble | CC(=O)NCCSC1=C(C(=O)O)N2C(=O)[C@@H](C(C)(C)O)[C@H]2C1 [KA-6643-G] | – | – | 2.5×10^-3 | Inhibitory zone ([8]; present substance 250 mcg/ml): 20.5 mm; Inhibitory zone ([8]; present substance 500 mcg/ml): 22.5 mm; Inhibitory zone ([8]; present substance 1,000 mcg/ml): 24.5 mm; Solubility in acetone, ethyl acetate and chloroform (Solubility in solvents; acetone, ethyl acetate and chloroform): substantially insoluble

Row | SMILES | MIC [1] | MIC [2] | MIC [3] | MIC [4] | MIC [5] | MIC (Proteus vulgaris OX17) | Solubility in water and methanol (Solubility in solvents) | β-lactamase inhibiting activity (β-lactamase) | antibacterial activity against both gram-positive and gram-negative bacteria [7] | rate of decomposition with dehydropeptidase (dehydropeptidase) | further results
5 | CC(=O)NCCSC1=C(C(=O)O)N2C(=O)[C@@H](C(C)(C)OS(=O)(=O)O)[C@H]2C1 [KA-6643-D] | 25 µg/mL (≈ 61.2 µM) | 3.1 µg/mL (≈ 7.59 µM) | 6.25 µg/mL (≈ 15.3 µM) | 25 µg/mL (≈ 61.2 µM) | 3.1 µg/mL (≈ 7.59 µM) | 12.5 µg/mL (≈ 30.6 µM) | – | – | – | – | Solubility in organic solvents (Solubility in solvents; organic solvents such as acetone, chloroform, ethyl acetate and petroleum ether): substantially insoluble; Solubility in water (Solubility in solvents; water): Readily soluble; zone of inhibition at 10 µg/mL ([6]; read-out: Diameter of inhibitory zone, present compound 10 mcg/ml, AB-PC 200 mcg/ml in medium, 37° C.): 22 mm; zone of inhibition at 10 µg/mL ([6]; read-out: Diameter of inhibitory zone, present compound 10 mcg/ml, no AB-PC, 37° C.): 0 mm
